Patent US20060030537A1, “Ceramide kinase and uses thereof” (priority 2004, published 2006)

Tested on: L929 fibroblasts
Test: PGE2 synthesis in L929 fibroblasts
Format: cell-based
Details: L929 fibroblasts
Procedure: FIGS. 3A-3B. FIG. 3A. The effects of ceramide-1-phosphate on TXB2 synthesis. A549 cells (1×10^5) were treated with D-e-C16 ceramide-1-phosphate (1 μM) solubilized in 2% dodecane/98% ethanol (final concentration in treatments was 0.002% dodecane/0.098% ethanol (EtOH)) for the indicated times. The results are presented as % control of TXB2 controlled for equivalent number of cells by MTT assay. Data are representative of 3 separate determinations on 2 separate occasions. FIG. 3B. The effects of ceramide-1-phosphate on AA release and PGE2 synthesis in L929 fibroblasts. L929 cells (5×10^4) were labeled overnight with 5 μCi/mL [^3H]-arachidonic acid (5 nM). Cells were washed and placed in DMEM supplemented with 2% fetal bovine serum for two hours. Cells were then treated with 2.5 μM D-e-C16 ceramide-1-phosphate (solubilized in 98% ethanol/2% dodecane) for the indicated times. […]
Quantification of prostaglandin E2 and thromboxane B2 synthesis: For measurement of PGE2 and TXB2 levels, aliquots of media were taken at indicated time points and assayed according to manufacturer's instructions using the prostaglandin E2 and thromboxane B2 monoclonal EIA Kit from Cayman Chemical. […] Results were controlled for equivalent number of cells quantified by MTT assay.

For “ceramide kinase RNAi: 21-nucleotide duplex, human ceramide kinase RNAi starting 142 nucleotides from start codon (SEQ ID NO: 3 and 4) (chain 1 UGCCUGCUCUGUGCCUGUATT; chain 2 UACAGGCACAGAGCAGGCATT; chemistry not given here)”, the “inhibition of PGE2 synthesis in response to IL-1β” value was “over 60%”.
